Measured values: patent EP2561886A1, “Peptide adjuvant for improved peripheral analgesia” (Forschungsverbund Berlin e.V., priority 2011, dated 2013)
No end group written: not given here. TAMRA = 5(6)-carboxytetramethylrhodamine

How the values were obtained:
[1] = tested on: perineurium of the sciatic nerve; experiment: Mechanical nociceptive thresholds (paw pressure threshold, modified Randall-Selitto test) after perineurial injection at the sciatic nerve; type: in vivo, Male Wistar rats; details: for Mechanical nociceptive thresholds (PPT) after injection of TTX: 10 µM TTX perineurially after peptide pretreatment (C1C2: 24-48 h); for mechanical nociceptive thresholds before the injection of DAMGO (Baseline) / mechanical nociceptive thresholds in contralateral paws: 400 µM peptide perineurially; for mechanical nociceptive thresholds in contralateral paws: contralateral paw
From the text: Animals. Animal protocols were approved by the animal care committee of the Regierung von Unterfranken and are in accordance with the International Association for the Study of Pain (44). Male Wistar rats weighing 180-220 g were used.
(§1) Perineurial Injection at the Sciatic Nerve. Nociceptive inputs from the rat hind paw travels through the sciatic nerve. Under brief isoflurane anesthesia, the right sciatic nerve was located using a 22 G needle connected to a nerve stimulator (Stimuplex Dig RC; Braun, Melsungen, Germany) as previously described (45). The needle was advanced to the point of maximal stimulation at 0.2 mA. 300 µl of the indicated substances was injected. If more than one injection within half hour was necessary the total injected volume was maintained at 300 µl.
(§2) Peptides were dissolved in 0.9% NaCl and injected perineurially in the indicated concentrations. Measurements (nociceptive thresholds, tissue harvest for Western blot or immunohistochemistry) were undertaken 24-96 h after peptide injection.
Measurements of Nociceptive Thresholds. Mechanical thresholds were determined using the paw pressure algesiometer (modified Randall-Selitto test; Ugo Basile, Comerio, Italy) as described before (47). The pressure required to elicit paw withdrawal, the paw pressure threshold (PPT), was determined in blinded experiments. Averages were calculated from three measurements each. An increase in PPT was interpreted as antinociception (analgesia), a decrease in PPT was interpreted as hyperalgesia (pain). Measurements were taken 10-60 min after injection of 100 µl containing 30 µg DAMGO or 10 µM TTX. The optimal doses of DAMGO or TTX have been evaluated in pilot studies (data not shown), but are similar to doses used for intraplantar injection in rats.

Caco-2 cell monolayers [2] = experiment: Paracellular permeability (permeation coefficient of FD-10 and Lucifer Yellow) of Caco-2 cell monolayers; type: cell-based, human; set-up: key to Paracellular Permeability: ↑ : increase; -: no change; details: for permeation of FD-10: FD-10 (10 kDa); for permeation of FD-10 / permeation of Lucifer Yellow: 48 h after peptide administration; for permeation of Lucifer Yellow: Lucifer Yellow (0.4 kDa); for Paracellular Permeability: summary table of claudin-derived peptides
Experimental: (§3) Measurements of Transcellular Electrical Resistance (TER) and Paracellular Permeability. 24-well transwell filters (Millicell-CM, Millipore, Eschborn, Germany) were coated with rat tail collagen (250 µg/cm^2) for 16 h, washed twice with PBS (phosphate buffer saline) and preincubated with DMEM (600 µl basolateral, 400 µl apical for Endohm electrodes and 400 µl basolateral, 500 µl apical for the cellZscope system (nanoAnalytics GmbH, Münster, Germany)) for 24 h. Caco-2 cells (200.000 cell/cm^2) were seeded into the filters and grown to high-resistance TER (> 500 Ω/cm^2) for approx. 4 days. Medium was changed every day.
The permeation studies were performed by addition of 25 µg/ml Lucifer Yellow (0.4 kDa) or FD-10 (fluorescein isothiocyanate-dextran, 10 kDa) in HBSS (Hank's balanced salt solution buffer) on the apical side and HBSS alone on the basolateral side. After 10 min, 100 µl probes were removed from the basolateral side and the fluorescence units were measured by a fluorescence plate reader (Tecan, Crailsheim, Germany) to calculate the PCoeff (permeation coefficient, cm/s). The obtained data were analyzed with GraphPad Prism 3.0 program (GraphPad Software, San Diego, USA).

Caco-2 cell monolayers [3] = experiment: Transcellular electrical resistance (TER) of Caco-2 cell monolayers; type: cell-based, human; details: for transcellular electrical resistance (TER): 300 µM
Experimental: as §3
The experiments were performed as followed: After reaching high and stable TER values, cell monolayers were treated with peptides as described above. Control cells were incubated with respective medium. The TER values were measured at distinct time intervals. For re-arrangement of the monolayer, C1C2 was removed from the Caco-2 cells by exchange of the medium.

claudin-1 [4] = target: T1, claudin-1 (Homo sapiens, UniProt O95832); experiment: Immunocytochemistry of claudin-1 and ZO-1 in Caco-2 cell monolayers; type: cell-based; details: 300 µM, 24 and 48 h after treatment
T1 construct: Caco-2 cells express several TJ proteins; endogenous in cells; host or cells: Caco-2
T1 sequence (O95832 1-211): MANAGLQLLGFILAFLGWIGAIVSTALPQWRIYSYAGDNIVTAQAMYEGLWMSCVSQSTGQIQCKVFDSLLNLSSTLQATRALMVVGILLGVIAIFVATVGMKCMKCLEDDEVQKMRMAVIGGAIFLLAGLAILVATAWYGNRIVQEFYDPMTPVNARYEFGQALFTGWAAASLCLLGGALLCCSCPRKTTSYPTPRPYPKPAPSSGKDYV
Experimental: Immunocytochemistry. Immunocytochemistry was performed as previously described (46). Caco-2 cells were transferred into 6-well plates containing collagen-coated cover-slips and grown to 60-70% confluence before use. Cells were treated with C1C2 (300 µM) as well as the control treated without peptide for 24 and 48 h, respectively. The medium was changed, followed by incubation with rabbit anti-claudin-1 and rabbit anti-ZO-1 (zonula occludens protein) antibodies and incubated with Alexa-Fluor 488-conjugated goat anti-rabbit secondary antibody. Cells were analyzed with the confocal microscope.

claudin-1 [5] = target: T2, claudin-1 (Rattus norvegicus, UniProt P56745); experiment: Immunohistochemistry of claudin-1 in the sciatic nerve after perineurial injection; type: in vivo; details: 400 µM perineurial injection, after 24 h
T2 construct: from tissue; host or cells: sciatic nerve (perineurium) of male Wistar rats
T2 sequence (P56745 1-211): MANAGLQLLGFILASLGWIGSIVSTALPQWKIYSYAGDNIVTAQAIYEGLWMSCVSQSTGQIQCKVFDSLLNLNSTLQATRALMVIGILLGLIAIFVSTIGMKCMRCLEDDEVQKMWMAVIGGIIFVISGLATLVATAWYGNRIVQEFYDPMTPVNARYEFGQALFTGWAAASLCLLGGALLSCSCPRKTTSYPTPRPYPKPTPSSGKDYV
Experimental: as §1, §2
The sciatic nerve was embedded in tissue-Tek compound (O.C.T., Miles Inc. Elkhart, Indiana) for claudin-1 staining. Sections (7-10 µm) were mounted onto gelatin-coated slides. Sections were fixed with acetone for 10 min at 4°C, washed in 0.01 M PBS (pH 7.4) for 10 min, incubated for 120 min in PBS containing 1% Triton X-100, washed in 0.01 M PBS and incubated for 30 min in 3% bovine serum albumin plus 1% normal goat serum blocking solution to prevent nonspecific binding. […] Finally, the sections were mounted and analyzed using the laser scanning microscope (Zeiss, Jena, Germany).

claudin-1 [6] = target: T2, claudin-1; experiment: Western blot of claudin-1 in sciatic nerve fractions after perineurial injection; type: in vivo; details: 400 µM perineurial injection
Experimental: as §1, §2
Western Blot Analysis. […] Extracted protein was diluted in lysis buffer and quantified using the BCA protein assay reagent (Pierce, Rockford, IL, USA) and a plate reader (Tecan, Grödig, Austria). […] Proteins were detected using specific antibodies against claudin-1 (Invitrogen, Carlsbad, CA, USA) and as protein loading control […]-actin (Sigma Aldrich, Taufkirchen, Germany), respectively. Visualization was done by luminescence.

wild type HEK-293 cells = experiment: Confocal microscopy of peptide internalization in wild type HEK-293 cells; type: cell-based, human; details: 40 µM, 24 h
Experimental: (§4) Cell Culture. Caco-2 (colorectal adenocarcinoma) cells (41) were grown in a humidified atmosphere at 37 °C and 10% CO2, whereas HEK-293 (human embryonic kidney) cells (42) and HEK-293 cells stably transfected with claudin-1-YFP (yellow fluorescence protein) (43) were grown at 37 °C and 5% CO2. Cells were cultured in DMEM (Dulbecco's modified Eagle's medium) containing 10% fetal calf serum, 100 units/ml penicillin, 100 µg/ml streptomycin, and 1% L-analyl-L-glutamine.
(§5) Confocal Microscopy. HEK-293 cells and stably claudin-1-YFP expressing HEK-293 cells were transferred into 6-well plates containing collagen-coated cover-slips as described above and grown to 60-70% confluence. Then, cells were treated with the TAMRA-labeled peptide (40 µM) for 15 min, 35 min, and 24 h, respectively. Pluronic ®F-68 (0.0012%) was added as solution enhancer. After removing of the peptide, cells were analyzed with the LSM 510 Meta confocal microscope (Zeiss, Jena, Germany).

[7] = tested on: HEK-293 cells stably transfected with claudin-1-YFP; experiment: Confocal microscopy of peptide internalization in claudin-1-YFP expressing HEK-293 cells; type: cell-based, human; details: 40 µM
Experimental: as §4, §5

**Q.** For “ESATHSTGITQSDIYSTLLGLPADIQAAQ-NH2 [Peptide C2C2, peptide from the C-terminal part of the ECL1 of rat claudin-2, same modifications as C1C2, applied as negative control, reference compound]”, which “Mechanical nociceptive thresholds (PPT) after injection of TTX” value [1] is on record?
**A.** unchanged

**Q.** And the “Mechanical nociceptive thresholds (paw pressure threshold, PPT) after injection of DAMGO” value ([1]; DAMGO perisciatic 0-4 d after perineurial peptide (400 µM))?
**A.** unchanged

**Q.** What about the “permeation of FD-10” value (Caco-2 cell monolayers [2]) of the same substance?
**A.** did not influence

**Q.** And the “permeation of Lucifer Yellow” value (Caco-2 cell monolayers [2])?
**A.** did not influence

**Q.** What about the “transcellular electrical resistance (TER)” value (Caco-2 cell monolayers [3]; bilateral treatment, 24 h) of the same substance?
**A.** unaffected

**Q.** What does the source list for “SSVSQSTGQIQSKVFDSLLNLNSTLQATR-NH2 [Peptide C1C2, 29 amino acid peptide derived from the C-terminal part of the ECL1 of rat claudin-1, Cys54/Cys64 substituted by serines, C-terminally amidated]”?
**A.** membrane-localized claudin-1 (claudin-1 [4]): clear decrease; Mechanical nociceptive thresholds (PPT) after injection of TTX [1]: enhanced the effect of TTX; mechanical nociceptive thresholds before the injection of DAMGO (Baseline) ([1]; 0 h): 77.67 ± 1.8 g; mechanical nociceptive thresholds before the injection of DAMGO (Baseline) ([1]; 24 h): 74.67 ± 3.00 g; mechanical nociceptive thresholds before the injection of DAMGO (Baseline) ([1]; 48 h): 68.0 ± 2.02 g; mechanical nociceptive thresholds before the injection of DAMGO (Baseline) ([1]; 72 h): 69.00 ± 1.861 g; mechanical nociceptive thresholds before the injection of DAMGO (Baseline) ([1]; 96 h): 73.3 ± 2.87 g; mechanical nociceptive thresholds in contralateral paws ([1]; 0 h): 77.33 ± 1.3 g; mechanical nociceptive thresholds in contralateral paws ([1]; 24 h): 63.33 ± 2.36 g; mechanical nociceptive thresholds in contralateral paws ([1]; 48 h): 67.67 ± 2.03 g; mechanical nociceptive thresholds in contralateral paws ([1]; 72 h): 65.0 ± 1.25 g; mechanical nociceptive thresholds in contralateral paws ([1]; 96 h): 67.67 ± 2.09 g; mechanical nociceptive thresholds (PPT) after DAMGO ([1]; 24 h after perineurial 100 µM peptide, 10 min after 30 µg DAMGO): increase; PPT after DAMGO ([1]; 48 h after perineurial 400 µM peptide, 10 min after 30 µg DAMGO): Significant increases; claudin-1 immunoreactivity in the perineurium (claudin-1 [5]): decreased; permeation of FD-10 (Caco-2 cell monolayers [2]): increased; permeation of Lucifer Yellow (Caco-2 cell monolayers [2]): increased; Paracellular Permeability (Caco-2 cell monolayers [2]): ↑; transcellular electrical resistance (TER) (Caco-2 cell monolayers [3]; apical treatment): significant reduction of the TER, but less efficient then the bilateral treatment; TER (Caco-2 cell monolayers [3]; bilateral application of 100, 200, and 300 µM): Time- and concentration-dependent reduction; transcellular electrical resistance (TER) (Caco-2 cell monolayers [3]; bilateral treatment, 24 h): significant reduction; recovery of the cell monolayer (barrier integrity) after removing peptide (Caco-2 cell monolayers [3]; peptide removed at 48 h, read 24 h later, i.e. after 72 h): Complete recovery; claudin-1 protein expression in the membrane (claudin-1 [6]; 24 h and 48 h, membrane fraction): decreased; claudin-1 protein expression in the cytosol (claudin-1 [6]; cytosol fraction): No change

**Q.** With “TAMRA-SSVSQSTGQIQSKVFDSLLNLNSTLQATR-NH2 ({TAMRA}-SSVSQSTGQIQSKVFDSLLNLNSTLQATR-NH2) [TAMRA-C1C2, C1C2 N-terminally labeled with TAMRA (5(6)-carboxytetramethylrhodamine)]” as the substance, how does the “Paracellular Permeability” value (Caco-2 cell monolayers [2]) read?
**A.** ↑

**Q.** And the internalization (wild type HEK-293 cells)?
**A.** weak unspecific internalization

**Q.** What about the “intracellular co-localization with claudin-1-YFP” value [7] of the same substance?
**A.** mainly co-localized

**Q.** And the “membrane-localized claudin-1-YFP” value ([7]; 24 h after treatment)?
**A.** decrease

**Q.** And the internalization ([7]; 15 min, 35 min, 24 h)?
**A.** internalized
